Measured values from patent US8299070B2, “Indole compounds and pharmaceutical use thereof” (Japan Tobacco Inc., priority 2009, dated 2012).

What follows are compounds tested against T1, hITK enzyme (FLAG-tagged full-length hITK) (Homo sapiens, UniProt Q08881) (assay: ITK inhibitory activity (HTRF kinase assay, biotinylated GST-SLP76 substrate)). Details: IC50 calculated from the 2 test compound concentrations sandwiching 50% ITK inhibitory rate.
T1 construct: strongly expressing FLAG-tagged full-length hITK in Sf9 cells; FLAG; made in house; host or cells: Sf9 insect cells (ITK); Escherichia coli (GST-SLP76 substrate)
T1 sequence (Q08881 1-620): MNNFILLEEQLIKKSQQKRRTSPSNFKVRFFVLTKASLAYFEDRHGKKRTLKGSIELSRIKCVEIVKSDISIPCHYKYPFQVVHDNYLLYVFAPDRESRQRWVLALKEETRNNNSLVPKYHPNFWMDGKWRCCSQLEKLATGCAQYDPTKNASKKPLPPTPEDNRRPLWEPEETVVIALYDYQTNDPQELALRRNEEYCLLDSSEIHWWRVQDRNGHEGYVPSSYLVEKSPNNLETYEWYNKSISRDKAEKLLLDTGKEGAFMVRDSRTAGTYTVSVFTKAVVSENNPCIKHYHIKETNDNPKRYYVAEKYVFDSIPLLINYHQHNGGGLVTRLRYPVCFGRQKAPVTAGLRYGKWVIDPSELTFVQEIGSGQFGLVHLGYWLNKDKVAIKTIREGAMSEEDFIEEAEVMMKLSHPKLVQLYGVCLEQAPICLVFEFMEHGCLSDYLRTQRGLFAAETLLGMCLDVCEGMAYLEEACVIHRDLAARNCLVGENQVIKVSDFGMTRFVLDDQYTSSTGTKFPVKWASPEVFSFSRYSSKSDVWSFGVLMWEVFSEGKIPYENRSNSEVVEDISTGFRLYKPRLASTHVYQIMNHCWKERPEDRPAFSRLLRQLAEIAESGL
Format: biochemical
Outline: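 Sf9-expressed hITK (50 ng/mL enzyme solution) reacted 10 min at RT in MOPS pH 7.0, 10 mmol/L MgCl2, 1 mmol/L DTT with E. coli SLP76 aa95–175 substrate; substrate solution held 100 µmol/L ATP (6 µmol/L for selected compounds). HTRF 665/620 ratio, blank-corrected; IC50 interpolated between two concentrations bracketing 50% inhibition.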

Compound	IC50 [nM]
CC1(C)CCc2c(-c3cc4cc(C(=O)Nc5ccccc5)ccc4[nH]3)n[nH]c2C1 [Example 293]	263
CNC(=O)c1ccc2[nH]c(-c3n[nH]c4c3CCC(C)(C)C4)cc2c1 [Example 294]	51
CN(C(=O)c1ccc2[nH]c(-c3n[nH]c4c3CCC(C)(C)C4)cc2c1)c1ccccc1 [Example 295]	138
CN(C)C(=O)c1ccc2[nH]c(-c3n[nH]c4c3CCC(C)(C)C4)cc2c1 [Example 296]	58
CC1(C)CCc2c(-c3cc4cc(C(N)=O)ccc4[nH]3)n[nH]c2C1 [Example 297]	48
CC1(C)CCc2c(-c3cc4cc(C(=O)N5CCOCC5)ccc4[nH]3)n[nH]c2C1 [Example 298]	44
CC(NC(=O)c1ccc2[nH]c(-c3n[nH]c4c3CCC(C)(C)C4)cc2c1)C(C)(C)C (centres unmarked) [Example 299]	74
CC(N(C)C(=O)c1ccc2[nH]c(-c3n[nH]c4c3CCC(C)(C)C4)cc2c1)C(C)(C)C (centres unmarked) [Example 300]	221
CC(C)OCCNC(=O)c1ccc2[nH]c(-c3n[nH]c4c3CCC(C)(C)C4)cc2c1 [Example 307]	61
CCCOCCNC(=O)c1ccc2[nH]c(-c3n[nH]c4c3CCC(C)(C)C4)cc2c1 [Example 308]	49
CC1(C)CCc2c(-c3cc4cc(C(=O)NCCOc5ccccc5)ccc4[nH]3)n[nH]c2C1 [Example 309]	102
COCCNC(=O)c1ccc2[nH]c(-c3n[nH]c4c3CCC(C)(C)C4)cc2c1 [Example 310]	47
COCCN(C)C(=O)c1ccc2[nH]c(-c3n[nH]c4c3CCC(C)(C)C4)cc2c1 [Example 313]	47
CN(Cc1ccccc1)C(=O)c1ccc2[nH]c(-c3n[nH]c4c3CCC(C)(C)C4)cc2c1 [Example 314]	143
CC1(C)CCc2c(-c3cc4cc(C(=O)NCc5ccccc5)ccc4[nH]3)n[nH]c2C1 [Example 315]	60
CC1(C)CCc2c(-c3cc4cc(C(=O)NCc5nccs5)ccc4[nH]3)n[nH]c2C1 [Example 316]	47
CC1(C)CCc2c(-c3cc4cc(C(=O)NCc5ccoc5)ccc4[nH]3)n[nH]c2C1 [Example 318]	45
Cn1cccc1CNC(=O)c1ccc2[nH]c(-c3n[nH]c4c3CCC(C)(C)C4)cc2c1 [Example 319]	46
CC1(C)CCc2c(-c3cc4cc(C(=O)NC(C)(C)CO)ccc4[nH]3)n[nH]c2C1 [Example 320]	49
CON(C)C(=O)c1ccc2[nH]c(-c3n[nH]c4c3CCC(C)(C)C4)cc2c1 [Example 321]	48
CC1(C)CCc2c(-c3cc4cc(C(=O)Nc5nnc(O)s5)ccc4[nH]3)n[nH]c2C1 [Example 324]	140
COc1nnc(NC(=O)c2ccc3[nH]c(-c4n[nH]c5c4CCC(C)(C)C5)cc3c2)s1 [Example 325]	246
CC1(C)CCc2c(-c3cc4cc(C(=O)NC(C)(C)C(=O)O)ccc4[nH]3)n[nH]c2C1 [Example 326]	42
CC1(C)CCc2c(-c3cc4cc(C(=O)NC(C)(C)C(=O)OC(C)(C)C)ccc4[nH]3)n[nH]c2C1 [Example 327]	132
CCN(CC)C(=O)c1ccc2[nH]c(-c3n[nH]c4c3CCC(C)(C)C4)cc2c1 [Example 330]	80
CCN(C)C(=O)c1ccc2[nH]c(-c3n[nH]c4c3CCC(C)(C)C4)cc2c1 [Example 331]	60

Other lines, results leading:

IC50 [nM]	Compound
5	COCCN(c1ccc2cc(-c3n[nH]c4c3CCC(C)(C)C4)[nH]c2c1)C(=O)[C@H]1CC[C@@H](OC)CC1 [Example 267]
5	CCN(C(=O)CC1CCOCC1)c1ccc2cc(-c3n[nH]c4c3CCC(C)(C)C4)[nH]c2c1 [Example 268]
6	COCCN(C(=O)CC1CCOCC1)c1ccc2cc(-c3n[nH]c4c3CCC(C)(C)C4)[nH]c2c1 [Example 269]
2	CCN(C(=O)CN1CCCCCC1=O)c1ccc2cc(-c3n[nH]c4c3CCC(C)(C)C4)[nH]c2c1 [Example 270]
3	CCN(C(=O)CN1C(=O)COC[C@@H]1C)c1ccc2cc(-c3n[nH]c4c3CCC(C)(C)C4)[nH]c2c1 [Example 271]
3	COCCN(C(=O)CN1C(=O)COC[C@@H]1C)c1ccc2cc(-c3n[nH]c4c3CCC(C)(C)C4)[nH]c2c1 [Example 272]
11	CCN(C(=O)CC1CCC(OC)CC1)c1ccc2cc(-c3n[nH]c4c3CCC(C)(C)C4)[nH]c2c1 (centres unmarked) [Example 273]
9	COCCN(C(=O)CC1CCC(OC)CC1)c1ccc2cc(-c3n[nH]c4c3CCC(C)(C)C4)[nH]c2c1 (centres unmarked) [Example 274]
2	CCN(C(=O)[C@H](C)N1CCOCC1)c1ccc2cc(-c3n[nH]c4c3CCC(C)(C)C4)[nH]c2c1 [Example 275]
4	COCCN(C(=O)[C@H](C)N1CCOCC1)c1ccc2cc(-c3n[nH]c4c3CCC(C)(C)C4)[nH]c2c1 [Example 276]
1	CCN(C(=O)CN1CC(C)(C)OCC1=O)c1ccc2cc(-c3n[nH]c4c3CCC(C)(C)C4)[nH]c2c1 [Example 277]
1	COCCN(C(=O)CN1CC(C)(C)OCC1=O)c1ccc2cc(-c3n[nH]c4c3CCC(C)(C)C4)[nH]c2c1 [Example 278]
< 1	CCN(C(=O)CN1C[C@H](C)OCC1=O)c1ccc2cc(-c3n[nH]c4c3CCC(C)(C)C4)[nH]c2c1 [Example 279]
2	COCCN(C(=O)CN1C[C@H](C)OCC1=O)c1ccc2cc(-c3n[nH]c4c3CCC(C)(C)C4)[nH]c2c1 [Example 280]
1	COCCN(C(=O)CN1CCCCCC1=O)c1ccc2cc(-c3n[nH]c4c3CCC(C)(C)C4)[nH]c2c1 [Example 281]
2	CCN(C(=O)CN1C[C@@H](C)OCC1=O)c1ccc2cc(-c3n[nH]c4c3CCC(C)(C)C4)[nH]c2c1 [Example 282]
2	COCCN(C(=O)CN1C[C@@H](C)OCC1=O)c1ccc2cc(-c3n[nH]c4c3CCC(C)(C)C4)[nH]c2c1 [Example 283]
1	CCN(C(=O)CN1CCC(C)(C)C1=O)c1ccc2cc(-c3n[nH]c4c3CCC(C)(C)C4)[nH]c2c1 [Example 284]
2	COCCN(C(=O)CN1CCC(C)(C)C1=O)c1ccc2cc(-c3n[nH]c4c3CCC(C)(C)C4)[nH]c2c1 [Example 285]
2	COCCN(C(=O)CN1CCOCC1=O)c1ccc2cc(-c3n[nH]c4c3CCC(C)(C)C4)[nH]c2c1 [Example 286]

IC50 [nM]	Compound
1	COCCN(C(=O)CN1CCCCC1=O)c1ccc2cc(-c3n[nH]c4c3CCC(C)(C)C4)[nH]c2c1 [Example 287]
1	CCN(C(=O)CN1CCOCC1=O)c1ccc2cc(-c3n[nH]c4c3CCC(C)(C)C4)[nH]c2c1 [Example 288]
< 1	CCN(C(=O)CN1CCCCC1=O)c1ccc2cc(-c3n[nH]c4c3CCC(C)(C)C4)[nH]c2c1 [Example 289]
8	CCN(C(=O)CC(C)(C)O)c1ccc2cc(-c3n[nH]c4c3CCC(C)(C)C4)[nH]c2c1 [Example 290]
1	CCN(C(=O)CN(C)C(C)=O)c1ccc2cc(-c3n[nH]c4c3CCC(C)(C)C4)[nH]c2c1 [Example 291]
2	CCC(=O)N(C)CC(=O)N(CC)c1ccc2cc(-c3n[nH]c4c3CCC(C)(C)C4)[nH]c2c1 [Example 292]
37	CC1(C)CCc2c(-c3cc4cc(C(=O)N5CCCC(O)C5)ccc4[nH]3)n[nH]c2C1 (centres unmarked) [Example 301]
39	CC1(C)CCc2c(-c3cc4cc(C(=O)N5CCC(O)CC5)ccc4[nH]3)n[nH]c2C1 [Example 302]
33	CC1(C)CCc2c(-c3cc4cc(C(=O)NCCO)ccc4[nH]3)n[nH]c2C1 [Example 303]
27	CN(CCO)C(=O)c1ccc2[nH]c(-c3n[nH]c4c3CCC(C)(C)C4)cc2c1 [Example 304]
13	COC(=O)CNC(=O)c1ccc2[nH]c(-c3n[nH]c4c3CCC(C)(C)C4)cc2c1 [Example 305]
27	CC1(C)CCc2c(-c3cc4cc(C(=O)NCC(=O)O)ccc4[nH]3)n[nH]c2C1 [Example 306]
32	COC(=O)CN(C)C(=O)c1ccc2[nH]c(-c3n[nH]c4c3CCC(C)(C)C4)cc2c1 [Example 311]
27	CN(CC(=O)O)C(=O)c1ccc2[nH]c(-c3n[nH]c4c3CCC(C)(C)C4)cc2c1 [Example 312]
21	CC1(C)CCc2c(-c3cc4cc(C(=O)NCc5nnn[nH]5)ccc4[nH]3)n[nH]c2C1 [Example 317]
41	CC1(C)CCc2c(-c3cc4cc(C(=O)NCCN5CCOCC5)ccc4[nH]3)n[nH]c2C1 [Example 322]
34	CN(C)CCNC(=O)c1ccc2[nH]c(-c3n[nH]c4c3CCC(C)(C)C4)cc2c1 [Example 323]
26	CC1(C)CCc2c(-c3cc4cc(C(=O)NC(CO)CO)ccc4[nH]3)n[nH]c2C1 [Example 328]
13	Cn1cncc1CNC(=O)c1ccc2[nH]c(-c3n[nH]c4c3CCC(C)(C)C4)cc2c1 [Example 329]
